Like-named read-outs stand apart in the source and are kept apart here.
How the values were obtained:
Fusarium culmorum = experiment: Antifungal effect against Fusarium culmorum on PDA petri dishes (fungal growth area, Colby synergy); type: cell-based; settings: 3 days after inoculation, Table 11
Description: (§1) The Colby equation (Colby, 1967. Weeds 15:20-22) calculates the expected antifungal activity (E in %) of a combination comprising more than one active ingredients:
(§2) wherein X and Y are the observed antifungal activities (in %) of the individual active ingredients x and y, respectively. If the observed antifungal activity (O in %) of the combination exceeds the expected antifungal activity (E in %) of the combination and the synergy factor O/E is thus >1.0, the combined application of the active ingredients leads to a synergistic antifungal effect.
(§3) Agar medium was prepared by mixing in a 100 ml Duran bottle 3.9 g of potato dextrose agar (PDA) from Carl-Roth (Carl-Roth GmbH+Co. KG, Karlsruhe, Germany) with 100 ml deionized water and autoclaving the Duran bottle at 120° C. for 15 minutes. After autoclaving, the solution was cooled by putting it in a 48° C. oven for about two hours. Afterward the semi-liquid PDA solution was carefully mixed with natamycin and/or insecticide dosages as specified in Table 5 showing the interaction results on petri dishes. The medium in the Duran bottle was divided over 5 petri dishes (90×15 mm), 20 ml per petri dish by using 25 ml serological pipets (ROTILABO®; Carl-Roth). Each natamycin and/or insecticide treatment was performed in fivefold.
(§4) Fungal spore suspensions were prepared by drenching a fully grown petri dish with sterile water. The fungus was scraped off and filtered through a Miracloth (pore size: 22-25 μm) (Merck KGaA, Darmstadt, Germany; catalogue number: 475855). The number of spores were counted with a hemocytometer and fungal suspension was adjusted to 10^6 spores per ml. Afterward, 5 μl of prepared spore suspension was pipetted on the center of the agar plate. The plates were incubated at 25° C. Measurement of the fungal growth was done using callipers at different time points. Assessment of the infection area was 6 days after inoculation.
(§5) The insecticide levels and the period after which the assessments were made are presented as specified for the different insecticides are presented in Table 5 below. Synergistic calculation was done using the Colby equation. Experiment was performed in 5-fold.
The experiments were performed as described in Example 3. Assessment of the infection area was 6 days after inoculation. Experiment was performed in 5-fold.
The experiments were performed as described in Example 3. The product KARATE ZEON® of company Syngenta containing the active ingredient lambda-cyhalothrin belonging to IRAC Group 3 was tested. Assessment of the infection area was 3 days after inoculation. Experiment was performed in 5-fold.

Botrytis cinerea = experiment: Antifungal effect against Botrytis cinerea infection on wounded peel of banana fruits (Colby synergy); type: in vivo; settings: 5 days after inoculation
Description: as §2
(§6) Application: The broad bean pods were washed under tap water, and were subsequently surface sterilized by placing them in a 0.1% sodium hypochlorite solution for 5 minutes. The pods were then rinsed with tap water and dried. Transparent plastic containers were prepared by placing a piece of absorbing paper in the container and adding 25 ml of water, one container per treatment was used. The pods were cut in two, and two halve pods were incubated per box. The skin of broad bean pods was damaged with a needle, ø 2 mm and to a depth of about 3 mm into the fruit, with—depending on the size of the pod—2 to 4 wounds per half pod. In total, 6 wounds were incubated per treatment, of which 1 was used as a control. A volume of 20 microliter of a natamycin/insecticide composition, as presented herein above, was applied by pipette to each wound. The treatments were then left to air-dry. Once dried, a mycelium plug of Sclerotinia sclerotiorum was placed upside down on each wound, so that the mycelium was in direct contact with the wound. Per treatment 5 wounds were inoculated with the fungus, while the 6th and last wound was used as negative non-inoculated control. After inoculation, the containers were directly closed with a transparent plastic lid.
The infection area was measured 5 days after inoculation.
A few changes were made for the banana experiments: 5 wounds per banana were made, on each wound 40 microliter of treatments was pipetted. The treatments were then left to air-dry. Once dried, 2 microliter of a freshly prepared inoculum was pipetted on four of the wounds. The inoculum consists of […] potato dextrose broth (PDB) medium containing Botrytis cinerea spores at a concentration of 10^6 spores per ml. The fifth wound was used as negative non-inoculated control. Experiment was performed in 4-fold.
Assessment of the infection area was performed 3 days after inoculation. Experiment was performed in 4-fold.
Imidacloprid was formulated as described in Table 2. Assessment of the efficacy was 5 days after inoculation. Experiment was performed in 4-fold.

Fusarium graminerum = type: cell-based; settings: 6 days after inoculation, Table 10
Description: as §1, §2, §3, §4, §5
The experiments were performed as described in Example 3. The product KARATE ZEON® of company Syngenta containing the active ingredient lambda-cyhalothrin belonging to IRAC Group 3 was tested. Assessment of the infection area was 6 days after inoculation. Experiment was performed in 5-fold.

Sclerotinia sclerotiorum = experiment: Antifungal effect against Sclerotinia sclerotiorum infection on wounded skin of broad bean pods (rot area, Colby synergy); type: in vivo; settings: 30 h after inoculation, Table 3
Description: as §1, §2
• 1) Control (without natamycin and lambda-cyhalothrin) • 2) Natamycin at a level of 15 ppm • 3) Lambda-cyhalothrin (in the product KARATE ZEON® of Syngenta) at a levels of 0.15 ppm, 0.6 ppm, 3 ppm and 15 ppm • 4) Natamycin at a level of 15 ppm combined with lambda-cyhalothrin at levels of 0.15 ppm, 0.6 ppm, 3 ppm or 15 ppm.
Used pathogen: Sclerotinia sclerotiorum.
as §6
All pods were kept at room temperature (20° C.). Wounds of the pods were checked after 30 h of incubation.
Replicates: All treatments for the broad bean pod experiment were performed on two individual pod halves resulting in 5 wounds per treatment, while a sixth wound served as control.
The experiments were performed as described in Example 1.
The experiments were performed as described in Example 1. Assessment of the infection area was 23 h after inoculation. Experiment was performed in 5-fold.
The experiments were performed as described in Example 1. Thiamethoxam belongs to IRAC Group 4. Assessment of the infection area was 31 hours after inoculation. Experiment was performed in 5-fold.
The experiments were performed as described in Example 1. The product SPECTRE® of company (Adama) containing the active ingredient chlorfenapyr belonging to IRAC Group 13 was tested. Assessment of the infection area was 23 hours after inoculation. Experiment was performed in 5-fold.

[1] = natamycin-insecticide 0-0.05 ppm
[2] = natamycin-insecticide 0-0.1 ppm
[3] = natamycin-insecticide 0-0.2 ppm
[4] = natamycin-insecticide 0-0.5 ppm
[5] = natamycin-insecticide 0:0.004 ppm, Table 12B
[6] = natamycin-insecticide 0:0.01 ppm, Table 12A
[7] = natamycin-insecticide 0:0.04 ppm, Table 12A
[8] = natamycin-insecticide 0:1 ppm, Table 12A
[9] = natamycin-insecticide 0-0.15 ppm
[10] = natamycin-insecticide 0-0.6 ppm

`CC1(C)[C@H](/C=C(\Cl)C(F)(F)F)[C@@H]1C(=O)O[C@@H](C#N)c1cccc(Oc2ccccc2)c1` [lambda-cyhalothrin, [(R)-cyano-(3-phenoxyphenyl)methyl] (1S,3S)-3-[(Z)-2-chloro-3,3,3-trifluoroprop-1-enyl]-2,2-dimethylcyclopropane-1-carboxylate] was tested, and the Avg infected area (Fusarium culmorum; [1]) was 384.0 mm2, the Observed antifungal activity (Fusarium culmorum; [1]) was −5.9% and the Avg infected area (Fusarium culmorum; [2]) was 383.9 mm2. It also gave an Observed antifungal activity (Fusarium culmorum; [2]) of −5.8%, an Avg infected area (Fusarium culmorum; [3]) of 370.9 mm2 and an Observed antifungal activity (Fusarium culmorum; [3]) of −2.2%. It also gave an Avg infected area (Fusarium culmorum; [4]) of 381.7 mm2, an Observed antifungal activity (Fusarium culmorum; [4]) of −5.2% and an Avg infected area (Botrytis cinerea; [5]) of 82.4 mm2. It also gave an Observed antifungal activity (Botrytis cinerea; [5]) of 16.6%, an Avg infected area (Botrytis cinerea; [6]) of 38.9 mm2 and an Observed antifungal activity (Botrytis cinerea; [6]) of 39.0%. For the same compound, the Avg infected area (Botrytis cinerea; [7]) was 55.1 mm2, the Observed antifungal activity (Botrytis cinerea; [7]) was 13.7% and the Avg infected area (Botrytis cinerea; [8]) was 41.8 mm2. It also gave an Observed antifungal activity (Botrytis cinerea; [8]) of 34.6%, an Avg infected area (Fusarium graminerum; [2]) of 4846.2 mm2 and an Observed antifungal activity (Fusarium graminerum; [2]) of −34.1%. It also gave an Avg infected area (Fusarium graminerum; [3]) of 5071.1 mm2, an Observed antifungal activity (Fusarium graminerum; [3]) of −40.3% and an Avg infected area (Fusarium graminerum; [4]) of 4842.3 mm2. The Observed antifungal activity (Fusarium graminerum; [4]) was −34%, the Avg infected area (Fusarium graminerum; natamycin-insecticide 0-1 ppm) was 4714.2 mm2 and the Observed antifungal activity (Fusarium graminerum; natamycin-insecticide 0-1 ppm) was −30.4%. For the same compound, the Avg infected area (Sclerotinia sclerotiorum; [9]) was 314.73 mm^2, the Observed antifungal activity (Sclerotinia sclerotiorum; [9]) was −0.1% and the Avg infected area (Sclerotinia sclerotiorum; [10]) was 325.88 mm^2. The Observed antifungal activity (Sclerotinia sclerotiorum; [10]) was −3.7%, the Avg infected area (Sclerotinia sclerotiorum; natamycin-insecticide 0-3 ppm) was 350.24 mm^2 and the Observed antifungal activity (Sclerotinia sclerotiorum; natamycin-insecticide 0-3 ppm) was −11.4%. It also gave an Avg infected area (Sclerotinia sclerotiorum; natamycin-insecticide 0-15 ppm) of 322.41 mm^2 and an Observed antifungal activity (Sclerotinia sclerotiorum; natamycin-insecticide 0-15 ppm) of −2.5%.
